The source of these data is patent US8101158B1, “Methods for treating cerebrovascular disease comprising administering an agent that inhibits prokineticin receptor activity” (The Regents of the University of California, priority 2007, dated 2012).

The nature of data set [1]: Pharmacokinetic study, brain concentration. The format is in vivo. The conditions noted are these: intraperitoneal injection of 60 mg/kg in rats. How it is done: (§1) Via custom synthesis, 10 grams of one of the morpholine carboximide derivatives was obtained, with chemical name of (±)-4-Benzyl-N-(3,4-dihydro-2H-1,5-benzodioxepin-7-ylmethyl)-N-isobutylmorpholine-2-carboxamide, compound I (FIG. 5). Compound I was tested using the in vitro ischemia model. […] We utilized compound I as a parent compound to test the potential therapeutic effect of blocking PKR2 in cerebral ischemia models.

The target in the next data set is T1, PKR2 (Homo sapiens, UniProt Q8NFJ6).
T1 construct: expressed in transfected cells
T1 sequence (Q8NFJ6 whole entry): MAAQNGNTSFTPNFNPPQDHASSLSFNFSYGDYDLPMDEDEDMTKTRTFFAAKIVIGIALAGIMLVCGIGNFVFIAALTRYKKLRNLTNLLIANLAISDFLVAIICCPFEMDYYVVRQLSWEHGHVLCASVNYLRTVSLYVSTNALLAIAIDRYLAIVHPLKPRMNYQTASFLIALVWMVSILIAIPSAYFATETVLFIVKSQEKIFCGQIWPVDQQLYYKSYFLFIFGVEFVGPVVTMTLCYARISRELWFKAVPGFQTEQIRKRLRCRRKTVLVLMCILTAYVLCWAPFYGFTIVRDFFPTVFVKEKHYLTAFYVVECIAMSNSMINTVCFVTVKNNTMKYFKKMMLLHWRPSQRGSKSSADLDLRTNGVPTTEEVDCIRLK
In words: Antagonism of PK2-induced calcium influx (luminescence) in CHO cells stably expressing PKR2. The note with it: luminescence (RLU), read-out: inhibition constant (Ki) for blocking activation of PKR2 by PK2. The class given is cell-based. As to the method:
FIG. 4 is a graphical representation showing the antagonistic effect of Compound I in Chinese Hamster Ovary cells that stably express PKR2. Dose-dependent response of PKR2 activation by PK2 in the presence of different concentrations of Compound I was measured with a luminometer. RLU is an index for calcium influx measurement for this luminescence-based assay. The dose-dependent calcium influx activated by PK2 was antagonized by Compound I. The inhibition constant obtained from this experiment was approximately 15 nM.
as §1

Data set [2] concerns brain infarct in experimental stroke model. The data set can be described thus: Experimental stroke model, infarct volume after i.p. compound I. The class given is in vivo, rats. The conditions noted are these: 50 mg/kg i.p., 30 minutes pre-ischemia; n=5, p<0.05; listed as compound I. As to the method:
TTC staining and infarct quantification was performed as follows. 24 hours after reperfusion, rats were perfused with ice cold PBS and the brain was sectioned into 2 mm thickness. Brain sections were stained in 2,3,5 triphenyl tetrazolium chloride (TTC) solution for 15 minutes or until infarct was visible, followed by fixation with 4% PFA overnight. Next day the brain sections were aligned from rostral to caudal and brain sections were scanned. Infarct size and volume was quantitated using the software Image J. Infarct and cortex was outlined and measured using Image J. Percent infarct represents infarct area over entire cortex area. Percent volume was measured by multiplying the area by the section thickness (2 mm). Compound I reduced infarct size in ischemia models. The effect of compound I in experimental stroke models was tested. […] Compound I-treated rats had smaller infarct at almost every level.

In the next data set the test system is PKR2 mRNA. The data set can be described thus: PKR2 mRNA in situ hybridization after pilocarpine-induced seizure. The class given is in vivo, mice. As to the method: (§2) All injections were administered through intraperitoneal injections (i.p.) Pilocarpine: to reduce muscarinic peripheral effects, all animals injected with pilocarpine were given 2 mg/kg of methylscopolamine (dissolved in saline 0.4 mg/ml) 30 minutes prior to injection. Pilocarpine-induced seizure was then initiated by injecting littermate mice (C57BL-6 or mix C57BL-6 with CD1) i.p. with (200 or 400 mg/kg) pilocarpine, respectively. Thereafter, animals were then assessed for seizure, as describe above, and sacrificed according to the following time course (30, 1 hr, 3 hrs, 6 hrs, 12 hrs, 36 hrs, 72 hrs). For groups within the pentylenetetrazol (metrazol, PTZ), mice were administered 75 mg/kg PTZ and subsequently monitored for 20 minutes. PTZ kindling were accomplished by administering 45 mg/kg PTZ every other day for 14 days. […] Each animal was injected and monitored for S5 seizure. […]
(§3) In situ hybridization was done according to Cheng et al 2001. […] Sections were then cut at 20-μm and processed for in situ as described by Winzer-Serhan et al. mRNA distributions from autoradiograms and emulsion-dipped sections were then analyzed and quantified with a system called MCID (Imaging Research). Calibration curve was generated by optical density versus radioactivity (disintegrations per minute (d.p.m.) per mg tissue wet weight) using 14 C standards. […]

The subject of data set [3] is PK2 mRNA. In words: PK2 mRNA in situ hybridization after pilocarpine-induced seizure. The conditions noted are these: CeA; for PK2 mRNA induction after pilocarpine in diazepam-pretreated animals: CA3 and dentate gyrus, diazepam prior to pilocarpine. The class given is in vivo, mice. How it is done: All injections were administered through intraperitoneal injections (i.p.) Pilocarpine: to reduce muscarinic peripheral effects, all animals injected with pilocarpine were given 2 mg/kg of methylscopolamine (dissolved in saline 0.4 mg/ml) 30 minutes prior to injection. Pilocarpine-induced seizure was then initiated by injecting littermate mice (C57BL-6 or mix C57BL-6 with CD1) i.p. with (200 or 400 mg/kg) pilocarpine, respectively. Thereafter, animals were then assessed for seizure, as describe above, and sacrificed according to the following time course (30, 1 hr, 3 hrs, 6 hrs, 12 hrs, 36 hrs, 72 hrs). For groups within the pentylenetetrazol (metrazol, PTZ), mice were administered 75 mg/kg PTZ and subsequently monitored for 20 minutes. PTZ kindling were accomplished by administering 45 mg/kg PTZ every other day for 14 days. Animals that reach S5 on the first day were not included in the experiments. Each animal was injected and monitored for S5 seizure. Once S5 is reached, the animal was considered kindled, and was taken out of the injection regimen.
as §3, with “2001. Antisense and sense riboprobes containing the 3′ UTR of mouse PK2 (GenBank accession number AF487279; residues 1147-2211), PKR1 (3′ UTR) and PKR2 (3′ UTR) were generated.” for “2001.”
A time course analysis for PK2 mRNA induction and upregulation in the pilocarpine-induced seizure model was performed. A total of seven time points (30 minutes, 1 hr, 3 hrs, 6 hrs, 12 hrs, 36 hrs, and 72 hrs post pilocarpine injection) were analyzed. […]

For data set [4], the system named is PK2 mRNA. In words: PK2 mRNA in situ hybridization in PTZ seizure model. The format is in vivo, mice. The note with it: data not shown. How it is done:
as §2, §3

In data set [5] the test system is brain infarct after distal MCAO. The data set can be described thus: Distal MCAO experimental stroke with ICV delivery of PK2, TTC infarct quantitation. The format is in vivo, rats. The conditions noted are these: PK2 0.3 nmol ICV within one hour after reperfusion, 24 hr, n=5, p<0.001. As to the method:
Distal Middle Cerebral Artery Occlusion (dMCAO) was performed in the PK2 intracerebroventricular […] infusion study. Anesthesia induced by 5% isoflurane and maintained by 2-3% isoflurane. A ventral midline incision was made, and the two CCAs were isolated. […] were placed around the CCAs, and the animal was placed on its right side. A 2-cm vertical scalp incision was made midway between the left eye and ear. The temporalis muscle was bisected and a 2-mm burr hole was made at the junction of the zygomatic arch and squamous bone to expose the distal MCA. The dura was cut and the distal MCA was permanently electro-cauterized. The CCA were then occluded with clips for 1 hour, and the animals were sacrificed and perfused after 24 hr. PK2 (0.3 nmol) was stereotaxically infused prior or post-ischemia. […] Body temperature, ECG, and respiration rate were monitored every 15 minutes and kept in physiological ranges. […] TTC staining and infarct quantification was performed as follows. […] Infarct size and volume was quantitated using the software Image J. Infarct and cortex was outlined and measured using Image J. Percent infarct represents infarct area over entire cortex area. Percent volume was measured by multiplying the area by the section thickness (2 mm). […] FIGS. 2B and C are graphs showing quantitation of infarct volume. […]

Data set [6] has as its system locomotor running wheel activity. The note with it: PK2 0.3 nmol; cited from earlier work.
Data set [7] deals with GABA (α1β1γ2) currents in oocytes with PKR2. In words: GABA-evoked currents in Xenopus oocytes, two-electrode voltage clamp. The class given is cell-based, Xenopus laevis. The conditions noted are these: GABA 10 uM; PK2 10 nM-30 nM; over 60 min; holding potential -70 mV. As to the method: FIG. 13 is a series of graphical representations showing PK2-induced reduction of GABA (α1β1γ2) currents. […] GABA (10 uM) evoked GABA currents without PK2 show no appreciable reduction over a 70 min course. Addition of PK2 (10 nM-30 nM) decreased GABA-evoked current over a period of 60 min. FIG. 13B is a graphical representation showing the average percent reduction of normalized GABA-evoked currents after addition of PK2. […] One-way Anova with post-Dunnet correction indicates (p<0.05) across all time points when compared to normalized base.
Multiple studies have found a complex system of inhibition, disinhibition, and various physiological consequences, depending on the circuitry and subtypes involved; all of which have important consequences in epileptogenesis. The role of PK2 and GABAA receptor, especially with the αβγ-GABAA which are found in the amygdale was investigated. […]. To do this study, a mixture of RNA containing α1β1γ2S with or without PKR2 was injected into Xenopus oocytes. GABA currents were then measured using the two-electrode voltage clamp with a holding potential of −70 mV, 4-6 days post injection. Repeated exposure (every 10 mins) with GABA (10 μM) to Xenopus oocytes (αβγ-GABAA or […] containing) induced a reproducible and stable current over a long-term recording (>1 hr).
For orientation: Two-electrode voltage clamp holds a large cell at a set potential and records current.

Entries after “also recorded” stand apart in the source; their conditions may differ.

The term Ki denotes a dissociation constant, usually derived from enzyme kinetics or from competition with a known ligand. As for `CC(C)CN(Cc1ccc2c(c1)OCCCO2)C(=O)C1CN(Cc2ccccc2)CCO1` (racemic) [Compound I, (±)-4-Benzyl-N-(3,4-dihydro-2H-1,5-benzodioxepin-7-ylmethyl)-N-isobutylmorpholine-2-carboxamide], the brain concentration result in data set [1] is recorded as “significant brain concentration”. For the same molecule, the Ki on PKR2 is about 15 nM. Moreover, the “infarct volume versus vehicle PEG400” value in data set [2] is reported as “significantly reduced infarct volume”.

On to `CN1C(=O)CN=C(c2ccccc2)c2cc(Cl)ccc21` [Diazepam, diazepam], for which the “PKR2 mRNA induction after pilocarpine with diazepam” value in the data set on PKR2 mRNA (seizure activity blocked with diazepam) is given as “eliminated induction”. The results for the “PK2 mRNA induction after pilocarpine in diazepam-pretreated animals” value in the data set with PK2 mRNA [3] and in the data set on PK2 mRNA [3] (listed as diazepam) were “eliminated induction; also recorded: blocks induction of PK2” and “completely abolished”, respectively.

Turning to `C1CCc2nnnn2CC1` [PTZ, Pentylenetetrazol], the “PK2 mRNA induction in PTZ seizure model” value in the data set with PK2 mRNA [4] is “only a modest upregulation of PK2 mRNA at the medial nucleus of the amygdale”.

Regarding `CC[C@@H]1C(=O)OC[C@@H]1Cc1cncn1C` [pilocarpine], the “peak PKR2 mRNA induction over basal level” value in the data set with PKR2 mRNA (CA1/CA2, 6 hr post pilocarpine injection) is reported as “about 7 fold”. Moreover, the “peak PK2 mRNA induction over basal level” value in the data set with PK2 mRNA [3] (6 hr post pilocarpine injection) is “over 100 fold”.

B1: PK2: secreted peptide ligand of G-protein coupled receptors PKR1 and PKR2 (protein, UniProt Q9HC23 28-129, looked up)
Prokineticin-2: AVITGACDKDSQCGGGMCCAVSIWVKSIRICTPMGKLGDSCHPLTRKNNFGNGRQERRKRKRSKRKKEVPFFGRRMHHTCPCLPGLACLRTSFNRFICLAQK
For the molecule B1, in data set [5], the “infarct volume versus saline” value is on record as “significantly increased overall average infarct volume”. The “duration of inhibitory response in locomotor running wheel activity” value in [6] is 3 to 5 h. For the same molecule, in data set [7], the “maximum inhibition of GABA-evoked currents” value is listed as 75 % of normalized baseline.
